Measurements as given in patent US20040176446A1, “Substituted amino dicarboxylic acid derivatives” (priority 2001, published 2004).

Compound `O=C(O)CCCCN(CCc1cc(-c2ccc(F)cc2F)ccc1OCc1ccc(C2CCCCC2)cc1)Cc1ccc(C(=O)O)cc1` [Example 1, 4-{[(4-Carboxybutyl)(2-{4-[(4-cyclohexylbenzyl)oxy]-2′,4′-difluoro-1,1′-biphenyl-3-yl}ethyl)amino]methyl}benzoic acid] has a melting point of over 240 °C.

In the case of `O=C(O)CCCCN(CCc1cc(-c2ccc(F)cc2F)ccc1OCc1ccc(-c2ccc(C(F)(F)F)cc2)cc1)Cc1ccc(C(=O)O)cc1` [Example 2, 4-({(4-Carboxybutyl)[2-(2′,4′-difluoro-4-{[4′-(trifluoromethyl)-1,1′-biphenyl-4-yl]methoxy}-1,1′-biphenyl-3-yl)ethyl]amino}methyl)benzoic acid], the melting point is reported as over 240 °C.
